Structures are written as SMILES. A value given as a limit tells only on which side of the number the result lay.

For the test, the system named is HBV viral load (viral production from HepAD38 cells). Put plainly: Activity of test compounds on viral production from HepAD38 cells (viral load by qPCR of HBV core sequence). Type of test: cell-based. The note with it: Hepatitis B virus, HePAD38, 120 h, viral load lowering, 5 days, qPCR of supernatant, read-out: VL HepAD38 EC50 range. The protocol:
Assay Measuring Activity of Test Compounds on Viral Production from HepAD38 Cells
HepAD38 cells grown in a T-150 flask (Corning, cat #: 430825) with Growth Medium (DMEM/F12 (1:1) (Hyclone, cat #: SH30023.02), 1× Pen/Strep (Invitrogen, cat #: 15140-122), 10% FBS (Tissue Culture Biologics, cat #: 101), 250 μg/mL G418 (Alfa Aesar, cat #: J62671), 1 μg/mL Tetracycline (Teknova, cat #: T3320)) were detached with 0.25% trypsin-EDTA (Invitrogen, cat #: 25200-056). Tetracycline-free treatment medium (15 mL DMEM/F12 (1:1) 1× Pen/step, with 2% FBS, Tet-system approved (Clontech, cat #: 631106) were then added to mix, transferred into a 50 ml conical tube (Falcon, cat #: 21008-918) and spun at 1300 rpm for 5 min. Pelleted cells were then re-suspended/washed with 50 mL of 1×DPBS (Invitrogen, cat #: 14190-136) 2 times and 50 mL treatment medium twice. HepAD38 cells were then re-suspended with 10 mL of treatment medium, syringed and counted. Wells of 96-well clear bottom TC plate (Corning, cat #: 3904) were seeded at 50,000 cells/well in 180 μL of treatment medium, and 20 μL of either 10% DMSO (Sigma, cat #: D4540) as controls or a 10× solution of test compounds in 10% DMSO in treatment media was added for a final compound concentration starting at 10 μM, and plates were incubated in 5% CO2 incubator at 37° C. for 5 days.
Subsequently viral load production was assayed by quantitative PCR (qPCR) of the HBV core sequence. PCR reaction mixture containing forward primers HBV-f 5′-CTGTGCCTTGGGTGGCITT-3′ (IDT DNA), Reverse primers HBV-r 5′-[…]-3′ (IDT DNA), Fluorescent TaqMan™ Probes HBV-probe 5′-FAM/AGCTCCAAA/ZENMITCTITATAAGGGTCGATGTC/3IABkFQ-3′ (IDT DNA), 10 μL/well of PerfeCTa® qPCR ToughMix® (Quanta Biosciences, Cat #: 95114-05K), and 6 μL/well of DEPC water (Alfa Aesar, cat #: J62087) was prepared. Four μL of supernatant was added to 16 μL of the reaction mixture in a qPCR plate (Applied Biosytems, Cat #: 4309849), sealed with a film (Applied Biosystems, Cat #: 4311971), centrifuged for a few seconds, and subsequently run on an Applied Biosystems VIIA7. The PCR mixture was incubated at 45° C. for 5 min, then 95° C. for 10 min, followed by 40 cycles of 10 seconds at 95° C. and 20 seconds at 60° C. Viral load was quantified against known HBV DNA standards by using ViiA™ 7 Software. Viral load in the supernatant from wells with treated cells were compared against viral load in supernatant from DMSO control wells (3 per plate). Cell viability assay was performed with CellTiter-Glo Luminescent Cell Viability Assay (Promega, cat #: G7573) with modification. Mixed appropriate amount of CellTiter-Glo (CTG) 1×DPBS in a 1:1 ratio, added 100 uL of the mixture to each well followed completely removal of all supernatant in each well without touching cell surface. Incubated the plate at room temperature for 10 min on an orbital shaker, and then read the plate with a plate reader (TECAN M1000 or Envision). EC50 or CC50 values were calculated through curve-fitting of the four-parameter nonlinear-logistic-regression model (GraphPad Prism or Dotmatics). CC50 values were all >10 μM.
A general note: Real-time PCR tracks product formation cycle by cycle.
For `Cn1cc(C2(O)CC3CC(c4ncn(C)c4C(=O)Nc4ccc(F)c(Cl)c4)CC3C2)c(F)n1` (stereo not drawn) [Example 175, N-(3-Chloro-4-fluorophenyl)-4-(5-(3-fluoro-1-methyl-1H-pyrazol-4-yl)-5-hydroxyoctahydropentalen-2-yl)-1-methyl-1H-imidazole-5-carboxamide], the EC50 (in general, the concentration needed to bring the measured effect to its halfway point) is less than 10 nM.
As for `CC(=O)Nc1cc(C2(O)CC3CC(c4ncn(C)c4C(=O)Nc4ccc(F)c(Cl)c4)CC3C2)n(C(C)C)n1` (stereo not drawn) [Example 166, 4-(5-(3-Acetamido-1-isopropyl-1H-pyrazol-5-yl)-5-hydroxyoctahydropentalen-2-yl)-N-(3-chloro-4-fluorophenyl)-1-methyl-1H-imidazole-5-carboxamide], the EC50 was less than 10 nM.
In the case of `CN(Cc1ccccc1)c1nc(C2CC3CC(O)CC3C2)c(C(=O)Nc2ccc(F)c(Cl)c2)n1C` (stereo not drawn) [Example 48, 2-(benzyl(methyl)amino)-N-(3-chloro-4-fluorophenyl)-4-(5-hydroxyoctahydropentalen-2-yl)-1-methyl-1H-imidazole-5-carboxamide], the EC50 is 50 to 500 nM.
Take `CCNc1cc(C2(O)CC3CC(c4ncn(C)c4C(=O)Nc4ccc(F)c(Cl)c4)CC3C2)n(C)n1` (stereo not drawn) [Example 200, N-(3-Chloro-4-fluorophenyl)-4-(5-(3-(ethylamino)-1-methyl-1H-pyrazol-5-yl)-5-hydroxyoctahydropentalen-2-yl)-1-methyl-1H-imidazole-5-carboxamide]: the EC50 is less than 10 nM.
As for `CC(N)c1cc(C2(O)CC3CC(c4ncn(C)c4C(=O)Nc4ccc(F)c(Cl)c4)CC3C2)n(C)n1` (stereo not drawn) [Example 112, 4-(5-(3-(1-Aminoethyl)-1-methyl-1H-pyrazol-5-yl)-5-hydroxyoctahydropentalen-2-yl)-N-(3-chloro-4-fluorophenyl)-1-methyl-1H-imidazole-5-carboxamide], the EC50 lay in the range of 10 to 50 nM.
On to `Cn1cnc(C2CC3CC(O)(c4cc(NS(C)(=O)=O)nn4C)CC3C2)c1C(=O)Nc1ccc(F)c(Cl)c1` (stereo not drawn) [Example 198, N-(3-Chloro-4-fluorophenyl)-4-(5-hydroxy-5-(1-methyl-3-(methylsulfonamido)-1H-pyrazol-5-yl)octahydropentalen-2-yl)-1-methyl-1H-imidazole-5-carboxamide], for which the EC50 fell in the range of 10 to 50 nM.
`Cn1cnc(C2CC3CC(O)(c4cc(C(F)(F)F)nn4C)CC3C2)c1C(=O)Nc1ccc(F)c(Cl)c1` (single isomer, unassigned) [Example 72, N-(3-Chloro-4-fluorophenyl)-4-(5-hydroxy-5-(1-methyl-3-(trifluoromethyl)-1H-pyrazol-5-yl)octahydropentalen-2-yl)-1-methyl-1H-imidazole-5-carboxamide]: the EC50 was less than 10 nM.
`C[C@H](O)c1cc(C2(O)CC3CC(c4ncn(C)c4C(=O)Nc4ccc(F)c(Cl)c4)CC3C2)n(C)n1` (stereo partly drawn) [Example 78, N-(3-Chloro-4-fluorophenyl)-4-(−5-hydroxy-5-(3-((S)-1-hydroxyethyl)-1-methyl-1H-pyrazol-5-yl)octahydropentalen-2-yl)-1-methyl-1H-imidazole-5-carboxamide]: the EC50 is less than 10 nM.
In the case of `Cn1cnc(C2CC3CC(O)(c4c(Cl)cnn4C)CC3C2)c1C(=O)Nc1ccc(F)c(Cl)c1` (stereo not drawn) [Example 122, 4-(5-(4-chloro-1-methyl-1H-pyrazol-5-yl)-5-hydroxyoctahydro-pentalen-2-yl)-N-(3-chloro-4-fluorophenyl)-1-methyl-1H-imidazole-5-carboxamide] it was less than 10 nM; in that of `CCNc1nc(C2CC3CC(O)CC3C2)c(C(=O)Nc2ccc(F)c(Cl)c2)n1C` (stereo not drawn) [Example 41, 5-[-5-Hydroxy-1,2,3,3a,4,5,6,6a-octahydropentalen-2-yl]-N-(3-chloro-4-fluorophenyl)-2-(ethylamino)-3-methyl-4-imidazolecarboxamide], 10 to 50 nM.
In the case of `CCn1nc(NCC(C)(C)O)c(F)c1C1(O)CC2CC(c3ncn(C)c3C(=O)Nc3ccc(F)c(Cl)c3)CC2C1` (stereo not drawn) [Example 215, N-(3-Chloro-4-fluorophenyl)-4-(5-(1-ethyl-4-fluoro-3-((2-hydroxy-2-methylpropyl)amino)-1H-pyrazol-5-yl)-5-hydroxyoctahydropentalen-2-yl)-1-methyl-1H-imidazole-5-carboxamide] it was less than 10 nM.
In the case of `CCn1ncc(C2(O)CC3CC(c4ncn(C)c4C(=O)Nc4ccc(F)c(Cl)c4)CC3C2)c1C(F)(F)F` (stereo not drawn) [Example 174, N-(3-Chloro-4-fluorophenyl)-4-(5-(1-ethyl-5-(trifluoromethyl)-1H-pyrazol-4-yl)-5-hydroxyoctahydropentalen-2-yl)-1-methyl-1H-imidazole-5-carboxamide] it was less than 10 nM; in that of `Cn1ccc(C2(O)CC3CC(c4ncn(C)c4C(=O)Nc4ccc(F)c(Cl)c4)CC3C2)n1` (stereo not drawn) [Example 118, N-(3-chloro-4-fluorophenyl)-4-(5-hydroxy-5-(1-methyl-1H-pyrazol-3-yl)octahydropentalen-2-yl)-1-methyl-1H-imidazole-5-carboxamide], less than 10 nM; in that of `CCn1nc(C(F)F)cc1C1(O)CC2CC(c3ncn(C)c3C(=O)Nc3ccc(F)c(F)c3)CC2C1` (stereo not drawn) [Example 177, 4-(5-(3-(Difluoromethyl)-1-ethyl-1H-pyrazol-5-yl)-5-hydroxyoctahydropentalen-2-yl)-N-(3,4-difluorophenyl)-1-methyl-1H-imidazole-5-carboxamide], less than 10 nM.
`CCNc1nc(C2CC3CC(=O)CC3C2)c(C(=O)Nc2ccc(F)c(Cl)c2)n1C` (stereo not drawn) [Example 49, N-(3-chloro-4-fluorophenyl)-2-(ethylamino)-1-methyl-4-(5-oxooctahydropentalen-2-yl)-1H-imidazole-5-carboxamide]: the EC50 lay in the range of 50 to 500 nM.
In the case of `CNS(=O)(=O)Nc1cc(C2(O)CC3CC(c4ncn(C)c4C(=O)Nc4ccc(F)c(Cl)c4)CC3C2)n(C)n1` (stereo not drawn) [Example 201, N-(3-Chloro-4-fluorophenyl)-4-(5-hydroxy-5-(1-methyl-3-((N-methylsulfamoyl)amino)-1H-pyrazol-5-yl)octahydropentalen-2-yl)-1-methyl-1H-imidazole-5-carboxamide] it was less than 10 nM; in that of `O=C(Nc1ccc(F)c(Cl)c1)c1ocnc1C1CC2CC(O)CC2C1` (stereo not drawn) [Example 36, N-(3-Chloro-4-fluorophenyl)-4-(5-hydroxyoctahydropentalen-2-yl)oxazole-5-carboxamide], 50 to 500 nM.
For `Cn1cnc(C2CC3CC(O)(c4[nH]ncc4F)CC3C2)c1C(=O)Nc1ccc(F)c(Cl)c1` (stereo not drawn) [Example 148, N-(3-Chloro-4-fluorophenyl)-4-(5-(4-fluoro-1H-pyrazol-5-yl)-5-hydroxyoctahydropentalen-2-yl)-1-methyl-1H-imidazole-5-carboxamide], the concentration for a half-maximal effect (EC50) was less than 10 nM.
The result for `Cn1cnc(C2CC3CC(O)(c4c(F)c(N)nn4C)CC3C2)c1C(=O)Nc1ccc(F)c(Cl)c1` (stereo not drawn) [Example 52, 4-(5-(3-Amino-4-fluoro-1-methyl-1H-pyrazol-5-yl)-5-hydroxyoctahydropentalen-2-yl)-N-(3-chloro-4-fluorophenyl)-1-methyl-1H-imidazole-5-carboxamide] reads less than 10 nM; that for `CC(C)(C)OC(=O)N1CCn2c(nc(C3CC4CC(O)CC4C3)c2C(=O)Nc2ccc(F)c(Cl)c2)C1` (stereo not drawn) [Example 84, tert-Butyl 3-((3-chloro-4-fluorophenyl)carbamoyl)-2-(5-hydroxy-octahydropentalen-2-yl)-5,6-dihydroimidazo[1,2-a]pyrazine-7(8H)-carboxylate], 50 to 500 nM.
Consider `CCn1cc(C2(O)CC3CC(c4ncn(C)c4C(=O)Nc4ccc(F)c(Cl)c4)CC3C2)c(C(F)(F)F)n1` (stereo not drawn) [Example 151, N-(3-Chloro-4-fluorophenyl)-4-(5-(1-ethyl-3-(trifluoromethyl)-1H-pyrazol-4-yl)-5-hydroxyoctahydropentalen-2-yl)-1-methyl-1H-imidazole-5-carboxamide], for which the EC50 is less than 10 nM.

Values taken from US12655130B2 (ASSEMBLY BIOSCIENCES, INC., priority 2020, dated 2026).
